In US8110681B2, “Compounds for the treatment of spinal muscular atrophy and other uses” (The United States of America as represented by the …, priority 2006, dated 2012):
Where two headings read alike, the source gives them in different places.

Test system: SMN2-linked luciferase-reporter gene construct
Assay: SMN splice reporter assay (SMN2-linked luciferase reporter, Example 10)
Assay type: cell-based
Conditions: for EC50: SMN2-linked luciferase reporter
Description: Cervical carcinoma cell lines were transformed with a SMN2-linked luciferase-reporter gene construct. The reporter is designed to detect shifts in the alternative splicing of SMN2 sequences. In particular, the reporter is constructed as a fusion of the alternatively spliced sequences of the SMN2 gene and the luciferase gene. Luciferase sequences are in the correct translational reading frame only when the SMN2 sequences are spliced according to the normal SMN1 mechanism (e.g., splicing to include exon 7), which allows for translation of the stable SMN protein. Compounds were tested in the assay by administering the compound to the cell line and detecting an increase in the luciferase activity. The assay is described in greater detail in Zhang et al., Gene Ther., 8, 1532-8 (2001). Compounds were administered as described in Lunn et al, Chem. & Biol, 11, 1489-1493 (2004).
The results are reported as a fold-increase over a baseline reading of transformed cells without any test compound.

[1] = maximum fold increase of reporter signal, average, read-out: SMN Splice Reporter Assay (Example 10) Avg MaxFold Increase

EC50 (average)	SMILES	SMN Splice Reporter Assay (Example 10) Avg MaxFold Increase (maximum fold increase of reporter signal, average)	maximal fold induction [1]	maximal fold induction (read-out: SMN Splice Reporter Assay (Example 10) Avg MaxFold Increase, maximum fold increase of reporter signal, average, heading: SMN Splice Reporter Assay Avg MaxFold Increase)
1.66 µM	CC(C(=O)OC(C)(C)C)c1ccc(N2Cc3ccccc3C2=O)cc1 (stereo not drawn) [ALB-111730]	1.267	–	–
0.174 µM	COC(=O)C(C)c1ccc(N2Cc3ccccc3C2=O)cc1 (stereo not drawn) [ALB-111731]	–	1.43	–
0.325 µM	CCOC(=O)C(C)c1ccc(N2Cc3ccccc3C2=O)cc1 (stereo not drawn) [ALB-111732]	–	1.41	–
0.528 µM	CC(C(=O)OCc1ccccc1)c1ccc(N2Cc3ccccc3C2=O)cc1 (stereo not drawn) [ALB-111733]	–	1.56	–
2.29 µM	CC(C(=O)OC(C)(C)C)c1ccc(N2Cc3ccccc3C2=O)cc1 (stereo not drawn) [ALB-111738]	–	1.17	–
2.02 µM	CC(C(=O)OC(C)(C)C)c1ccc(N2Cc3ccc(Cl)cc3C2=O)cc1 (stereo not drawn) [ALB-111740]	–	1.49	–
2.12 µM	CC(C(=O)OC(C)(C)C)c1ccc(N2Cc3ccc(N)cc3C2=O)cc1 (stereo not drawn) [ALB-111745]	–	1.17	–
2.27 µM	CC(C(=O)NO)c1ccc(N2Cc3ccccc3C2=O)cc1 (stereo not drawn) [ALB-111748]	–	1.38	–
14 µM	CC(C(=O)NS(=O)(=O)N(C)C)c1ccc(N2Cc3ccccc3C2=O)cc1 (stereo not drawn) [ALB-111749]	–	1.16	–
5.56 µM	CC(C(=O)OC(C)(C)C)c1ccc(N2Cc3cc(Cl)ccc3C2=O)cc1 (stereo not drawn) [ALB-111761]	–	1.19	–
0.358 µM	CC(C(=O)O)c1ccc(N2Cc3cc(Cl)ccc3C2=O)cc1 (stereo not drawn) [ALB-111762]	–	1.38	–
13.9 µM	CC(C(=O)O)c1ccc(N2Cc3c(Cl)cccc3C2=O)cc1 (stereo not drawn) [ALB-111763]	–	1.17	–
1.56 µM	CC(C(=O)OC(C)(C)C)c1ccc(N2Cc3cccc(Cl)c3C2=O)cc1 (stereo not drawn) [ALB-111783]	–	1.13	–
1.13 µM	CC(C(=O)O)c1ccc(N2Cc3cccc(Cl)c3C2=O)cc1 (stereo not drawn) [ALB-111784]	–	1.41	–
25.8 µM	CCCC1c2ccccc2C(=O)N1c1ccc(C(C)C(=O)O)cc1 (stereo not drawn) [ALB-111795]	–	1.41	–
3.52 µM	CC(C)(C(=O)O)c1ccc(N2Cc3ccccc3C2=O)cc1 [ALB-111796]	–	1.22	–
21.4 µM	CC(C(=O)OC(C)(C)C)c1ccc(N2Cc3cc(Br)ccc3C2=O)cc1 (stereo not drawn) [ALB-111853]	–	1.1	–
0.553 µM	CC(C(=O)O)c1ccc(N2Cc3cc(Br)ccc3C2=O)cc1 (stereo not drawn) [ALB-111855]	–	1.35	–

EC50 (average)	SMILES	SMN Splice Reporter Assay (Example 10) Avg MaxFold Increase (maximum fold increase of reporter signal, average)	maximal fold induction [1]	maximal fold induction (read-out: SMN Splice Reporter Assay (Example 10) Avg MaxFold Increase, maximum fold increase of reporter signal, average, heading: SMN Splice Reporter Assay Avg MaxFold Increase)
0.568 µM	CC(C(=O)NS(=O)(=O)C(C)C)c1ccc(N2Cc3ccccc3C2=O)cc1 (stereo not drawn) [ALB-111856]	–	1.14	–
2.83 µM	CC(C(=O)OC(C)(C)C)c1ccc(N2Cc3ccccc3C2=O)cc1Br (stereo not drawn) [ALB-111882]	–	1.24	–
1.26 µM	CC(C(=O)O)c1ccc(N2Cc3ccc(N)cc3C2=O)cc1 (stereo not drawn) [ALB-111883a]	–	1.17	–
7.74 µM	CC(C(=O)O)c1ccc(N2Cc3cc(-c4ccc(Cl)cc4)ccc3C2=O)cc1 (stereo not drawn) [ALB-111890]	–	1.16	–
8.88 µM	Cc1ccc(-c2ccc3c(c2)CN(c2ccc(C(C)C(=O)O)cc2)C3=O)cc1 (stereo not drawn) [ALB-111891]	–	1.31	–
4.31 µM	COc1ccc(-c2ccc3c(c2)CN(c2ccc(C(C)C(=O)O)cc2)C3=O)cc1 (stereo not drawn) [ALB-111892]	–	1.46	–
3.16 µM	COc1cccc2c1CN(c1ccc(C(C)C(=O)OC(C)(C)C)cc1)C2=O (stereo not drawn) [ALB-111894]	–	1.29	–
5.22 µM	CC(C(=O)OC(C)(C)C)c1ccc(N2Cc3cc(N)ccc3C2=O)cc1 (stereo not drawn) [ALB-111949]	–	1.29	–
0.396 µM	COc1cccc2c1C(=O)N(c1ccc(C(C)C(=O)OC(C)(C)C)cc1)C2 (stereo not drawn) [ALB-111955]	–	1.08	–
0.451 µM	COc1ccc2c(c1)CN(c1ccc(C(C)C(=O)O)cc1)C2=O (stereo not drawn) [ALB-111959]	–	1.26	–
6.62 µM	CC(=O)Nc1ccc2c(c1)C(=O)N(c1ccc(C(C)C(=O)OC(C)(C)C)cc1)C2 (stereo not drawn) [ALB-111960]	–	1.24	–
1.43 µM	CC(C(=O)O)c1ccc(N2C(=O)c3ccccc3C2C)cc1 (stereo not drawn) [ALB-111964]	–	1.63	–
9.46 µM	COc1ccc(C(=O)Nc2ccc3c(c2)C(=O)N(c2ccc(C(C)C(=O)O)cc2)C3)cc1 (stereo not drawn) [ALB-111984]	–	1.19	–
2.95 µM	CC(C(=O)O)c1ccc(N2Cc3cc(-c4ccccc4)ccc3C2=O)cc1 (stereo not drawn) [ALB-111993]	–	1.54	–
4.18 µM	CC(C(=O)O)c1ccc(N2Cc3cc(-c4cncnc4)ccc3C2=O)cc1 (stereo not drawn) [ALB-111994]	–	1.38	–
12 µM	CC(C(=O)O)c1ccc(N2Cc3cccc([N+](=O)[O-])c3C2=O)cc1 (stereo not drawn) [ALB-111995]	–	1.25	–
0.175 µM	CC(C(=O)OC(C)(C)C)c1ccc(N2Cc3ccc(NS(C)(=O)=O)cc3C2=O)cc1 (stereo not drawn) [ALB-111997]	–	–	1.01
2.06 µM	Cc1ccc(-c2cc(N3Cc4ccccc4C3=O)ccc2C(C)C(=O)O)cc1 (stereo not drawn) [ALB-112003]	–	1.09	–

Further lines, the compound ahead of its results:

SMILES	EC50 (average)	SMN Splice Reporter Assay (Example 10) Avg MaxFold Increase (maximum fold increase of reporter signal, average)	maximal fold induction [1]	maximal fold induction (read-out: SMN Splice Reporter Assay (Example 10) Avg MaxFold Increase, maximum fold increase of reporter signal, average, heading: SMN Splice Reporter Assay Avg MaxFold Increase)
CC(C(=O)NS(C)(=O)=O)c1ccc(N2Cc3ccccc3C2=O)cc1 (stereo not drawn) [ALB-111744]	–	–	1.14	–
CC(C(=O)NC#N)c1ccc(N2Cc3ccccc3C2=O)cc1 (stereo not drawn) [ALB-111746]	–	–	1.11	–
CC(C(=O)NS(=O)(=O)c1ccccc1)c1ccc(N2Cc3ccccc3C2=O)cc1 (stereo not drawn) [ALB-111747]	–	–	1.04	–
CC(C(=O)OC(C)(C)C)c1ccc(N2Cc3c(Cl)cccc3C2=O)cc1 (stereo not drawn) [ALB-111760]	–	–	1.07	–
CC(C(=O)OC(C)(C)C)c1ccc(N2Cc3cc(-c4ccc(Cl)c(Cl)c4)ccc3C2=O)cc1 (stereo not drawn) [ALB-111854]	–	–	1.04	–
CCCC(C)(C(=O)O)c1ccc(N2Cc3ccccc3C2=O)cc1 (stereo not drawn) [ALB-111857]	–	–	1.07	–
CC(C(=O)OC(C)(C)C)c1ccc(N2Cc3cc(-c4cccnc4)ccc3C2=O)cc1 (stereo not drawn) [ALB-111884]	–	–	1.03	–
CC(C(=O)O)c1ccc(N2Cc3cc(-c4ccc(Cl)c(Cl)c4)ccc3C2=O)cc1 (stereo not drawn) [ALB-111885]	–	–	1.09	–
CC(C(=O)OC(C)(C)C)c1ccc(N2Cc3cc(-c4ccc(Cl)cc4)ccc3C2=O)cc1 (stereo not drawn) [ALB-111886]	–	–	1.07	–
Cc1ccc(-c2ccc3c(c2)CN(c2ccc(C(C)C(=O)OC(C)(C)C)cc2)C3=O)cc1 (stereo not drawn) [ALB-111887]	–	–	1.04	–
CC(C(=O)OC(C)(C)C)c1ccc(N2Cc3cc(-c4ccccc4)ccc3C2=O)cc1 (stereo not drawn) [ALB-111888]	–	–	1.1	–
CC(C(=O)O)c1ccc(N2Cc3cc(-c4cccnc4)ccc3C2=O)cc1 (stereo not drawn) [ALB-111889]	–	–	1.05	–
COc1ccc2c(c1)CN(c1ccc(C(C)C(=O)OC(C)(C)C)cc1)C2=O (stereo not drawn) [ALB-111893]	–	–	1.09	–
COc1cccc2c1CN(c1ccc(C(C)C(=O)O)cc1)C2=O (stereo not drawn) [ALB-111895]	–	–	1.15	–
CC(C(=O)O)c1ccc(N2Cc3cc(N)ccc3C2=O)cc1 (stereo not drawn) [ALB-111950a]	–	–	1.07	–
CC(C(=O)OC(C)(C)C)c1ccc(N2Cc3cccc([N+](=O)[O-])c3C2=O)cc1 (stereo not drawn) [ALB-111951]	–	–	1.2	–
CC(C(=O)OC(C)(C)C)c1ccc(N2Cc3c(N)cccc3C2=O)cc1 (stereo not drawn) [ALB-111952]	–	–	1.04	–

SMILES	EC50 (average)	SMN Splice Reporter Assay (Example 10) Avg MaxFold Increase (maximum fold increase of reporter signal, average)	maximal fold induction [1]	maximal fold induction (read-out: SMN Splice Reporter Assay (Example 10) Avg MaxFold Increase, maximum fold increase of reporter signal, average, heading: SMN Splice Reporter Assay Avg MaxFold Increase)
COc1ccc(C(=O)Nc2ccc3c(c2)C(=O)N(c2ccc(C(C)C(=O)OC(C)(C)C)cc2)C3)cc1 (stereo not drawn) [ALB-111954]	–	–	1.04	–
COc1cccc2c1C(=O)N(c1ccc(C(C)C(=O)O)cc1)C2 (stereo not drawn) [ALB-111957]	–	–	1.23	–
CC(C(=O)OC(C)(C)C)c1ccc(N2Cc3ccc(NC(=O)c4ccccc4)cc3C2=O)cc1 (stereo not drawn) [ALB-111958]	–	–	1.06	–
CC(C(=O)O)c1ccc(N2Cc3ccccc3C2=O)cc1Br (stereo not drawn) [ALB-111962]	–	–	1.08	–
CC(C(=O)OC(C)(C)C)c1ccc(N2Cc3ccccc3C2=O)cc1-c1ccc(Cl)c(Cl)c1 (stereo not drawn) [ALB-111963]	–	–	1.02	–
CC(C(=O)O)c1ccc(N2Cc3ccc(NC(=O)c4ccc(Cl)cc4)cc3C2=O)cc1 (stereo not drawn) [ALB-111983]	–	–	1.06	–
CC(C(=O)O)c1ccc(N2Cc3ccc(NC(=O)c4ccccc4)cc3C2=O)cc1 (stereo not drawn) [ALB-111986]	–	–	1.06	–
CC(C)C(=O)Nc1ccc2c(c1)C(=O)N(c1ccc(C(C)C(=O)OC(C)(C)C)cc1)C2 (stereo not drawn) [ALB-111989]	–	–	1.06	–
CC(C(=O)OC(C)(C)C)c1ccc(N2Cc3cc(-c4cncnc4)ccc3C2=O)cc1 (stereo not drawn) [ALB-111991]	–	–	1.09	–
CC(C(=O)OC(C)(C)C)c1ccc(N2Cc3cc(-c4cccs4)ccc3C2=O)cc1 (stereo not drawn) [ALB-111992]	–	–	1.01	–
CC(C(=O)O)c1ccc(N2Cc3c(N)cccc3C2=O)cc1 (stereo not drawn) [ALB-111996a]	–	–	1.11	–
CC(C(=O)OC(C)(C)C)c1ccc(N2Cc3ccccc3C2=O)c(Br)c1 (stereo not drawn) [ALB-111998]	–	–	1.04	–
CC(C(=O)O)c1ccc(N2Cc3ccccc3C2=O)cc1-c1ccc(Cl)c(Cl)c1 (stereo not drawn) [ALB-111999]	–	–	1.05	–
Cc1ccc(-c2cc(N3Cc4ccccc4C3=O)ccc2C(C)C(=O)OC(C)(C)C)cc1 (stereo not drawn) [ALB-112000]	–	–	1.06	–
COc1ccc(-c2cc(N3Cc4ccccc4C3=O)ccc2C(C)C(=O)OC(C)(C)C)cc1 (stereo not drawn) [ALB-112001]	–	–	1.02	–
COc1ccc(-c2cc(N3Cc4ccccc4C3=O)ccc2C(C)C(=O)O)cc1 (stereo not drawn) [ALB-112002]	–	–	1.08	–
